Read-outs that look alike come from different tables or passages of the source.
Tests used:
HepG2 cells = assay: MTT cytotoxicity / mitochondrial toxicity assay, glucose vs galactose medium, HepG2; format: cell-based, Human; conditions: for AC50: Homo sapiens
Protocol: (§1) Human hepatocellular liver carcinoma cells (HepG2) or Human glioblastoma-astrocytoma, epithelial-like cells (U-87 MG) were plated on 96-well tissue culture treated polystyrene plates at 0.5×10^4 cells in 100 μL of Dulbecco's modified Eagle's medium containing either galactose or glucose supplemented with 10% foetal bovine serum and antibiotics per well. After 24 hr the cells are dosed with test compound at a range of concentrations and incubated for 72 nr. One hour prior to the end of the incubation period, the cells are loaded with MTT [yellow; 3-(4,5-dimethyl-2-thiazolyl)-2,5-diphenyl-2H-tetrazolium bromide], the plates are dried and re-solubilised using DMSO. The plates are then scanned using SpectraFluor Plus (TECAN).
(§2) To measure the relative sensitivity of HepG2 or U-87 MG cells grown in medium containing either galactose or glucose to the test compound.
(§3) Cytotoxicity was assessed using MTT. The assay provides a measurement of mitochondrial dehydrogenase activity and cell loss.
(§4) Cell Loss: A decrease can indicate a loss of cells indicating toxicity due to necrosis, apoptosis or a reduction in cellular proliferation.
(§5) Mitochondrial Activity: A decrease can also indicate an effect on mitochondrial function as mitochondrial dehydrogenases reduce the MTT [yellow; 3-(4,5-dimethyl-2-thiazolyl)-2,5-diphenyl-2H-tetrazolium bromide] to formazan. The formazan is detected in this assay (see assay protocol for details).
(§6) The AC50 is calculated from a four point logistic curve fit to determine percent survival of each test agent and control compound. The fold change is calculated from AC50 curve fit data by comparison with cells grown with glucose or galactose, A greater than 5-fold response in the presence of galactose indicates the compound is considered to be a mitochondrial toxicant.

[1] = tested on: glioma-initiating cells (GICs); assay: Short term dose response on gliomaspheres, cell death by FACS after trypan blue incorporation; format: cell-based, human; conditions: 50 μM, 48 hrs
Protocol: Short term dose response of the compound of Example 4 was performed according to the method as described in the patent application PCT no PCTIB2010/052237 (WO 2010/134039).
Briefly, gliomaspheres were dissociated, counted and plated at 10 cells/μl in DMEM-F12, 2% B27, 1% peni/strep, EGF and bFGF at 1 ng/ml. Cells were then treated with various amount of the compound for 48 hrs and cell death was analysed by FACS after incorporation of trypan blue (1/1000).

U-87 MG cells = assay: MTT cytotoxicity / mitochondrial toxicity assay, glucose vs galactose medium, U-87 MG; format: cell-based, Human; conditions: for AC50: Homo sapiens
Protocol: as §1, §2, §3, §4, §5, §6

`O=CNc1cccc(C(=O)NC2CCCCCCCC2)c1O` [Example 4, N-cyclononyl-3-formamido-2-hydroxybenzamide] was tested, and the “Fold Change (AC50 glucose vs galactose)” value (HepG2 cells; HepG2, 72 h) was 9.92, the “Cell Loss - Galactose MEC” value (HepG2 cells; HepG2, galactose medium, 72 h, MTT) was 4 µM and the “Cell Loss - Glucose MEC” value (HepG2 cells; HepG2, glucose medium, 72 h, MTT) was 10 µM. For the same compound, the “Mitochondrial Toxicant” value (HepG2 cells; HepG2, greater than 5-fold response in galactose = mitochondrial toxicant) was “Yes”, the AC50 (HepG2 cells; HepG2, galactose medium, 72 h, MTT, read-out: Cell Loss - Galactose AC50) was 2400 nM and the AC50 (HepG2 cells; HepG2, glucose medium, 72 h, MTT, read-out: Cell Loss - Glucose AC50) was 23800 nM. For the same compound, the “fold increase cell death” value [1] was at least 1.2 fold, the “Fold Change (AC50 glucose vs galactose)” value (U-87 MG cells; 72 h) was over 70.1 and the AC50 (U-87 MG cells; galactose medium, 72 h, MTT, read-out: Cell Loss - Galactose AC50) was 1410 nM. The AC50 (U-87 MG cells; glucose medium, 72 h, MTT, read-out: Cell Loss - Glucose AC50) was over 100000 nM, the “Cell Loss - Galactose MEC” value (U-87 MG cells; galactose medium, 72 h, MTT) was 1 µM and the “Cell Loss - Glucose MEC” value (U-87 MG cells; glucose medium, 72 h, MTT) was over 100 µM. The “Mitochondrial Toxicant” value (U-87 MG cells; greater than 5-fold response in galactose = mitochondrial toxicant) was “Yes”.
